Test results from patent US20060063759A1, “Tricyclic steroid hormone nuclear receptor modulators” (priority 2002, published 2006).

Key:
glucocorticoid receptor = target: T1, glucocorticoid receptor (Homo sapiens, UniProt P04150); experiment: Glucocorticoid Receptor Binding Assay ([3H]-dexamethasone, A549 cell extract); settings: [3H]-dexamethasone binding, read-out: GR Ki
T1 construct: containing 50-200 ug of A549 cell extract and 1.86 nM [^3H]-dexamethasone; host or cells: A549 human lung epithelial cells (sonicated cell extract)
T1 sequence (P04150 1-777): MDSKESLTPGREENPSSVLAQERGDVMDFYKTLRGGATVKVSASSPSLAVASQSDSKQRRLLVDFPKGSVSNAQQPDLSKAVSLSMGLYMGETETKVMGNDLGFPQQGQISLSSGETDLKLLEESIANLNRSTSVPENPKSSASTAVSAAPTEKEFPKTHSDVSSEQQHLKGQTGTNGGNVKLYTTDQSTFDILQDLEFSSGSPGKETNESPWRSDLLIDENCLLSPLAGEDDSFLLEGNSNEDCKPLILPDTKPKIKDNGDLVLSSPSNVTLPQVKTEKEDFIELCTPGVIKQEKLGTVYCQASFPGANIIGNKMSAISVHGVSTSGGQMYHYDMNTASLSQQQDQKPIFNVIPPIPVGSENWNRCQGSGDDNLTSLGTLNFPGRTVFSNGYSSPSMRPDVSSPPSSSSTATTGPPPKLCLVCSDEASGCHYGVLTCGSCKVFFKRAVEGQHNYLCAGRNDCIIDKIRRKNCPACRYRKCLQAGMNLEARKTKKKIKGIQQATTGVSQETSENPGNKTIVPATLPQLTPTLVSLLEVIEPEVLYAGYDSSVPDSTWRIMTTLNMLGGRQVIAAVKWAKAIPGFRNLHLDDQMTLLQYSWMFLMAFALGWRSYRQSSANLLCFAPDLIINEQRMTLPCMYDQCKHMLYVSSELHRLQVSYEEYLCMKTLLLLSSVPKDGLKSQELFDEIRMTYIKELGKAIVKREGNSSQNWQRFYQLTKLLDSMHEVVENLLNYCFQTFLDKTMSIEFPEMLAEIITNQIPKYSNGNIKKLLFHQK
Summary of the method: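 A549 cell extract (50–200 ug) incubated with 1.86 nM [3H]-dexamethasone and test compound for 16 h at 4 °C in Tris-HCl pH 7.2 buffer with glycerol and molybdate. Unbound radioligand removed by dextran-coated charcoal, then supernatant bound counts measured by scintillation.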

human MR = target: T2, human MR (Homo sapiens, UniProt P08235); experiment: Mineralocorticoid Receptor Binding Assay ([3H]-aldosterone); settings: [3H]-aldosterone binding, human MR expressed in Sf9 cells; read-out: MR Ki
T2 construct: The full length human MR gene is cloned from a human kidney or human brain cDNA library; His tag from the pAcHLT vector (own knowledge); made in house; host or cells: Sf9 insect cells (baculovirus, pAcHLT transfer vector)
T2 sequence (P08235 1-984): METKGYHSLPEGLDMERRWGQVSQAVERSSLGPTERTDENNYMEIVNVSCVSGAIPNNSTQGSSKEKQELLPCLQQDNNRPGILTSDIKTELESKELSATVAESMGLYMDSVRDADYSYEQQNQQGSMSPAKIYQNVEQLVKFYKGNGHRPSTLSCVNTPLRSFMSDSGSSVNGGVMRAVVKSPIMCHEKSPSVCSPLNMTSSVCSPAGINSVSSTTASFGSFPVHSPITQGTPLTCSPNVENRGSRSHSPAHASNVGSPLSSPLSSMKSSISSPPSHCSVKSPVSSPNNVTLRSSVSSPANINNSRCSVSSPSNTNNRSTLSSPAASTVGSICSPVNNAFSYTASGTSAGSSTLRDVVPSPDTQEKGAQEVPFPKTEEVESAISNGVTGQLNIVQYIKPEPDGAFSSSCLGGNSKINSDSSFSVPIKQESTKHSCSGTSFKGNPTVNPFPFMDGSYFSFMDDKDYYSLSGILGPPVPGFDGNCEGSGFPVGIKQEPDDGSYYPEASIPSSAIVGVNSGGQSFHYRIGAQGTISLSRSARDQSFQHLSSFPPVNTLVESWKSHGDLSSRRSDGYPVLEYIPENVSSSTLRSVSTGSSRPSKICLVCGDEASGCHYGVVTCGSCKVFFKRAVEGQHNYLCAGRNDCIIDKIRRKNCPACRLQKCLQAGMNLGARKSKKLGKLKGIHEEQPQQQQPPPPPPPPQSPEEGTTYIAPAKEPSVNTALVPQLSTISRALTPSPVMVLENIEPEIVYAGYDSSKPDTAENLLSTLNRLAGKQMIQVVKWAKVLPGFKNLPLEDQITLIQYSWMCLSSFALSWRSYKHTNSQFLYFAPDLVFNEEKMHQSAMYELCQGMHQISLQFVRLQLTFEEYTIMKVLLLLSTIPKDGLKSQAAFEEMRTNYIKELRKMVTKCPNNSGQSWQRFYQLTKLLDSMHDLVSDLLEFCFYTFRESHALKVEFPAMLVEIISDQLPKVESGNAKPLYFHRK
Summary of the method: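 Lysate supernatant of Sf9 cells expressing full-length human MR (20-25 μg protein) was incubated with 0.5 nM [3H]-aldosterone and test compound in molybdate/Tris/phosphate/glycerol buffer, pH 7.5, ~16 h at 4 °C. Bound ligand was filtered and counted by scintillation; IC50 is the concentration halving [3H]-aldosterone binding.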

| SMILES | Ki (glucocorticoid receptor) | Ki (human MR) | melting point |
| --- | --- | --- | --- |
| CNS(=O)(=O)c1ccc(C=C2c3ccccc3CCc3ccccc32)cc1 [Example 27, 4-(10,11-Dihydro-dibenzo[a,d]cyclohepten-5-ylidenemethyl)-N-methyl-benzenesulfonamide] | < 1000 nM | < 500 nM | 189.7 °C |
| FC(F)Oc1cccc(C=C2c3ccccc3CCc3ccccc32)c1 [Example 65, 5-(3-Difluoromethoxy-benzylidene)-10,11-dihydro-5H-dibenzo[a,d]cycloheptene] | < 10000 nM | < 500 nM | 91.3 °C |
| COc1cccc(C=C2c3ccccc3CCc3ccccc32)c1 [Example 32, 5-(3-Methoxy-benzylidene)-10,11-dibydro-5H-dibenzo-[a,d]cycloheptene] | < 1000 nM | < 500 nM | 83 °C |
| CCCNS(=O)(=O)c1ccccc1C=C1c2ccccc2CCc2ccccc21 [Example 6, 2-(10,11-Dihydro-benzo[a,d]cyclohepten-5-ylidenemethyl)-N-propyl-benzenesulfonamide] | < 500 nM | < 500 nM | 155.6 °C |
| COc1cccc(C=C2c3ccccc3CCc3ccccc32)c1OC [Example 35] | < 500 nM | < 500 nM | 130.6 °C |
| CNS(=O)(=O)c1ccccc1C=C1c2ccccc2CCc2ccccc21 [Example 4, 2-(10,11-Dihydro-dibenzo[a,d]cyclohepten-5-ylidenemethyl)-N-methyl-benzenesulfonamide] | < 1000 nM | < 500 nM | 149 °C |
| CNS(=O)(=O)c1cc(C)ccc1C=C1c2ccccc2CCc2ccccc21 [Example 2, 2-(10,11-Dihydro-dibenzo[a,d]cyclohepten-5-ylidenemethyl)-5,N-dimethyl-benzenesulfonamide] | < 500 nM | < 500 nM | 174.9 °C |
| Oc1ccc(C=C2c3ccccc3CCc3ccccc32)cc1 [Example 60, b-(10,11-Dihydro-dibenzo[a,d]cyclohepten-5-ylidenemethyl)-phenol] | < 10000 nM | < 500 nM | 56.9 °C |
| Oc1ccc(C=C2c3ccccc3CCc3ccccc32)cc1O [Example 62, 4-(10,11-Dihydro-dibenzo[a,d]cyclohepten-5-ylidenemethyl)-benzene-1,2-diol] | < 10000 nM | < 500 nM | 138 °C |
| COc1ccccc1C=C1c2ccccc2CCc2ccccc21 [Example 31, 5-(2-Methoxy-benzylidene)-10,11-dihydro-5H-dibenzo-[a,d]cycloheptene] | < 10000 nM | < 500 nM | 129.3 °C |

Continued, values first:

| Ki (glucocorticoid receptor) | Ki (human MR) | melting point | SMILES |
| --- | --- | --- | --- |
| < 500 nM | < 500 nM | 76.6 °C | Oc1cccc(CC2c3ccccc3CCc3ccccc32)c1 [Example 126, 3-(10,11-Dihydro-5H-dibenzo[a,d]cyclohepten-5-ylmethyl)-phenol] |
| < 500 nM | < 500 nM | 198.9 °C | O=Cc1ccccc1C=C1c2ccccc2CCc2ccccc21 [Example 69, 2-(10,11-Dihydro-dibenzo[a,d]cyclohepten-5-ylidenemethyl)-benzaldehyde] |
| < 500 nM | < 500 nM | 204.3 °C | Nc1cccc(C=C2c3ccccc3CCc3ccccc32)c1 [Example 86, 3-(10,11-Dihydro-dibenzo[a,d]cyclohepten-5-ylidenemethyl)-phenylamine] |
| < 1000 nM | < 500 nM | 210.7 °C | CS(=O)(=O)Nc1ccc(C=C2c3ccccc3CCc3ccccc32)cc1 [Example 99, N-[4-(10,11-Dihydro-dibenzo[a,d]cyclohepten-5-ylidenemethyl)-phenyl]-methanesulfonamide] |
| < 10000 nM | < 500 nM | 115.7 °C | N#Cc1cccc(C=C2c3ccccc3CCc3ccccc32)c1 [Example 81, 3-(10,11-Dihydro-dibenzo[a,d]cyclohepten-5-ylidenemethyl)-benzonitrile] |
| < 10000 nM | < 500 nM | 92.5 °C | FC(F)c1cccc(C=C2c3ccccc3CCc3ccccc32)c1 [Example 72, 5-(3-Difluoromethyl-benzylidene)-10,11-dihydro-5H-dibenzo[a,d]cycloheptene] |
| < 1000 nM | < 500 nM | 86.7 °C | O=Cc1cccc(C=C2c3ccccc3CCc3ccccc32)c1 [Example 70, 3-(10,11-Dihydro-dibenzo[a,d]cyclohepten-5-ylidenemethyl)-benzaldehyde] |
| < 500 nM | < 500 nM | 252.1 °C | O=C(Nc1ccc(C=C2c3ccccc3CCc3ccccc32)cc1)c1ccncc1 [Example 117, N-[4-(10,11-Dihydro-dibenzo[a,d]cyclohepten-5-ylidenemethyl)-phenyl]-isonicotinamide] |
| < 500 nM | < 500 nM | 180.2 °C | CCS(=O)(=O)Nc1cccc(C=C2c3ccccc3CCc3ccccc32)c1 [Example 91, Ethanesulfonic acid [3-(10,11-hydro-dibenzo[a,d]cyclohepten-5-ylidenemethyl)-phenyl]-amide] |
| < 500 nM | < 500 nM | 13.3 °C | FC(F)c1ccccc1C=C1c2ccccc2CCc2ccccc21 [Example 71, 5-(2-Difluoromethyl-benzylidene)-10,11-dihydro-5H-dibenzo[a,d]cycloheptene] |
| < 500 nM | < 500 nM | 109.6 °C | COc1ccc2c(c1)CCc1cc(OC)ccc1C2=Cc1cccc(NS(C)(=O)=O)c1 [Example 191, N-[3-(2,8-Dimethoxy-10,11-dihydro-dibenzo[a,d]cyclohepten-5-ylidenemethyl)-phenyl]-methanesulfonamide] |
| < 1000 nM | < 500 nM | 257 °C | Cn1cnc(S(=O)(=O)Nc2cccc(C=C3c4ccccc4CCc4ccccc43)c2)c1 [Example 95, 1-Methyl-1H-imidazole-4-sulfonic acid [3-(10,11-dihydro-dibenzo[a,d]cyclohepten-5-ylidenemethyl)-phenyl]-amide] |
| < 10000 nM | < 500 nM | 199 to 201 °C | CS(=O)(=O)Nc1cccc(C=C2c3ccccc3C3C(c4ccccc42)C3(Cl)Cl)c1 (stereo not drawn) [Example 259, N-[3-(8,8-Dichloro-4-ylidenemethyl-2,3,5,6-dibenzobicyclo[5.1.0]octane)-phenyl]-methanesulfonamide] |
| < 1000 nM | < 500 nM | 129.5 °C | Oc1cccc(C=C2c3cccc(F)c3CCc3c(F)cccc32)c1 [Example 202, 3-(1,9-Difluoro-10,11-dihydro-dibenzo[a,d]cyclohepten-5-ylidenemethyl)-phenol] |
